This experiment relates to L1210 leukemia ip in BDF1 mice, survival T/C. Nature of the experiment: NCI In Vivo Anticancer Drug Screen. Data for tumor model L1210 Leukemia (intraperitoneal) in B6D2F1 (BDF1) mice. The following applies: endpoint: mean survival time, higher = longer survival. The gist of the method:
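In this screen, tumor-bearing mice given compound are compared to those given vehicle, and their survival values are reported as a treated-to-control quotient.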

Where [1] appears, read: dose: 100.0 mg/kg/injection, schedule: Q01DX001 (ip), vehicle: carboxymethylcellulose (CMC).
[2] abbreviates: dose: 25.0 mg/kg/injection, schedule: Q01DX009 (ip), vehicle: saline with Tween-80.
Setting [3] is: dose: 50.0 mg/kg/injection, schedule: Q01DX009 (ip), vehicle: saline with Tween-80.
The mark [4] stands for this setting: dose: 100.0 mg/kg/injection, schedule: Q01DX009 (ip), vehicle: saline with Tween-80.
[5] abbreviates: dose: 200.0 mg/kg/injection, schedule: Q01DX001 (ip), vehicle: carboxymethylcellulose (CMC).
The mark [6] stands for this setting: dose: 400.0 mg/kg/injection, schedule: Q01DX001 (ip), vehicle: carboxymethylcellulose (CMC).
[7] abbreviates: dose: 100.0 mg/kg/injection, schedule: Q01DX001 (ip), vehicle: saline.
[8] abbreviates: dose: 200.0 mg/kg/injection, schedule: Q01DX001 (ip), vehicle: saline.
The mark [9] stands for this setting: dose: 25.0 mg/kg/injection, schedule: Q01DX009 (ip), vehicle: saline.
[10] abbreviates: dose: 200.0 mg/kg/injection, schedule: Q01DX009 (ip), vehicle: Klucel (hydroxypropylcellulose) (HPC).
The mark [11] stands for this setting: dose: 100.0 mg/kg/injection, schedule: Q01DX009 (ip), vehicle: saline.
[12] abbreviates: dose: 100.0 mg/kg/injection, schedule: Q04DX003 (ip), vehicle: saline.
Where [13] appears, read: dose: 200.0 mg/kg/injection, schedule: Q04DX003 (ip), vehicle: saline.
The mark [14] stands for this setting: dose: 400.0 mg/kg/injection, schedule: Q04DX003 (ip), vehicle: saline.
The mark [15] stands for this setting: dose: 200.0 mg/kg/injection, schedule: Q01DX009 (ip), vehicle: saline with Tween-80.
Setting [16] is: dose: 400.0 mg/kg/injection, schedule: Q01DX009 (ip), vehicle: saline with Tween-80.
Where [17] appears, read: dose: 100.0 mg/kg/injection, schedule: Q04DX003 (ip), vehicle: saline with Tween-80.
[18] abbreviates: dose: 200.0 mg/kg/injection, schedule: Q04DX003 (ip), vehicle: saline with Tween-80.
Where [19] appears, read: dose: 400.0 mg/kg/injection, schedule: Q04DX003 (ip), vehicle: saline with Tween-80.

Structures are written as SMILES. Where “and” joins values, the source holds several entries; their conditions need not be identical. Identical values can stand only once. Inconclusive results and toxic doses are left out.

As to `O=NN(CCCl)C(=O)Nc1ccc(Br)cn1`, the T/C by setting is: (dose: 3.0 mg/kg/injection, schedule: Q01DX009 (ip), vehicle: carboxymethylcellulose (CMC)) 97 % of control; (dose: 6.0 mg/kg/injection, schedule: Q01DX009 (ip), vehicle: carboxymethylcellulose (CMC)) 103 % of control; (dose: 10.0 mg/kg/injection, schedule: Q01DX009 (ip), vehicle: carboxymethylcellulose (CMC)) 186 % of control; (dose: 12.0 mg/kg/injection, schedule: Q01DX009 (ip), vehicle: carboxymethylcellulose (CMC)) 119 % of control; (dose: 15.0 mg/kg/injection, schedule: Q01DX009 (ip), vehicle: carboxymethylcellulose (CMC)) 154 % of control; (dose: 22.5 mg/kg/injection, schedule: Q01DX009 (ip), vehicle: carboxymethylcellulose (CMC)) 158 % of control. Moreover, the T/C is 157 % of control (dose: 29.0 mg/kg/injection, schedule: Q01DX009 (ip), vehicle: carboxymethylcellulose (CMC)); 151 % of control (dose: 66.0 mg/kg/injection, schedule: Q01DX001 (ip), vehicle: carboxymethylcellulose (CMC)); 150 % of control and 173 % of control under setting [1]; 102 % of control and 109 % of control (dose: 150.0 mg/kg/injection, schedule: Q01DX001 (ip), vehicle: carboxymethylcellulose (CMC)).

With `COc1ccc(/C=N/NC(=O)CNC(=O)c2ccccc2)cc1`, the T/C reads like this: under setting [2], 93 % of control; under setting [3], 95 % of control; under setting [4], 91 % of control.

As to `COc1ccc2c(c1)C1(C)CCCC(C)(C(N)=O)C1CC2` (stereo unspecified), the T/C is, setting by setting: under setting [1], 101 % of control; under setting [5], 93 % of control; under setting [6], 98 % of control.

`CC1(N)COP(=O)(NCc2ccccc2)OC1` (stereo unspecified): the T/C runs as follows: under setting [7], 95 % of control; under setting [8], 103 % of control; (dose: 400.0 mg/kg/injection, schedule: Q01DX001 (ip), vehicle: saline) 103 % of control.

With `NN=C(NN)NN`, the T/C reads like this: (dose: 100.0 mg/kg/injection, schedule: Q04DX002 (ip), vehicle: saline) 98 % of control; (dose: 200.0 mg/kg/injection, schedule: Q04DX002 (ip), vehicle: saline) 104 % of control; (dose: 400.0 mg/kg/injection, schedule: Q04DX002 (ip), vehicle: saline) 104 % of control.

Take `CN1CCc2c3n(c4ccccc24)C(=O)CCC31` (stereo unspecified): the T/C is 106 % of control (dose: 6.25 mg/kg/injection, schedule: Q01DX009 (ip), vehicle: saline); 101 % of control (dose: 12.5 mg/kg/injection, schedule: Q01DX009 (ip), vehicle: saline); 104 % of control under setting [9].

For the compound `Br/C(=C(/Br)c1ccccc1)c1ccccc1`, the T/C runs as follows: (dose: 50.0 mg/kg/injection, schedule: Q01DX009 (ip), vehicle: Klucel (hydroxypropylcellulose) (HPC)) 105 % of control; (dose: 100.0 mg/kg/injection, schedule: Q01DX009 (ip), vehicle: Klucel (hydroxypropylcellulose) (HPC)) 91 % of control; under setting [10], 102 % of control.

As to `CC(=O)CC(=O)Nc1cc(Cl)ccc1C`, the T/C (dose: 100.0 mg/kg/injection, schedule: Q04DX003 (ip), vehicle: Klucel (hydroxypropylcellulose) (HPC)) is 92 % of control; the T/C under setting [10] was 92 % of control; the T/C (dose: 200.0 mg/kg/injection, schedule: Q04DX003 (ip), vehicle: Klucel (hydroxypropylcellulose) (HPC)) was 97 % of control; the T/C (dose: 400.0 mg/kg/injection, schedule: Q04DX003 (ip), vehicle: Klucel (hydroxypropylcellulose) (HPC)) is 92 % of control.

As to `Cc1ccc(C(=O)OCc2ccccc2CN(C)C)cc1`, the T/C (dose: 100.0 mg/kg/injection, schedule: Q04DX002 (ip), vehicle: Klucel (hydroxypropylcellulose) (HPC)) was 94 % of control; the T/C (dose: 200.0 mg/kg/injection, schedule: Q04DX002 (ip), vehicle: Klucel (hydroxypropylcellulose) (HPC)) was 94 % of control; the T/C (dose: 400.0 mg/kg/injection, schedule: Q04DX002 (ip), vehicle: Klucel (hydroxypropylcellulose) (HPC)) is 102 % of control.

Consider `Cc1nccnc1N`, for which the T/C under setting [9] is 112 % of control; the T/C (dose: 50.0 mg/kg/injection, schedule: Q01DX009 (ip), vehicle: saline) is 110 % of control; the T/C under setting [11] is 95 % of control and 108 % of control; the T/C under setting [12] was 98 % of control; the T/C under setting [13] is 109 % of control; the T/C under setting [14] is 102 % of control.

In the case of `S=c1[nH]c2nccnc2[nH]1`, the T/C by setting is: under setting [2], 96 % of control; under setting [3], 96 % of control; under setting [4], 93 % of control; under setting [15], 97 % of control; under setting [16], 104 % of control.

Take `NC(=O)c1cc(=O)n(C2OC(CO)C(O)C2O)c2nc(N)nc(N)c12` (stereo unspecified): the T/C is, setting by setting: (dose: 12.5 mg/kg/injection, schedule: Q01DX005 (ip), vehicle: water) 93 % of control; (dose: 25.0 mg/kg/injection, schedule: Q01DX005 (ip), vehicle: water) 90 % of control; (dose: 50.0 mg/kg/injection, schedule: Q01DX005 (ip), vehicle: water) 90 % of control; (dose: 100.0 mg/kg/injection, schedule: Q01DX005 (ip), vehicle: water) 90 % of control; (dose: 200.0 mg/kg/injection, schedule: Q01DX005 (ip), vehicle: water) 93 % of control.

Regarding `CC(C)C1SC(=S)NC1=O` (stereo unspecified), the T/C runs as follows: under setting [7], 88 % of control; under setting [8], 95 % of control.

`O=c1[nH]c(Nc2ccccc2)c([N+](=O)[O-])c(=O)[nH]1`: the T/C by setting is: (dose: 9.0 mg/kg/injection, schedule: Q01DX001 (ip), vehicle: Klucel (hydroxypropylcellulose) (HPC)) 98 % of control; (dose: 18.0 mg/kg/injection, schedule: Q01DX001 (ip), vehicle: Klucel (hydroxypropylcellulose) (HPC)) 110 % of control; (dose: 37.0 mg/kg/injection, schedule: Q01DX001 (ip), vehicle: Klucel (hydroxypropylcellulose) (HPC)) 101 % of control; (dose: 75.0 mg/kg/injection, schedule: Q01DX001 (ip), vehicle: Klucel (hydroxypropylcellulose) (HPC)) 104 % of control.

With `COc1ccc(C(=O)CC(C(=O)O)c2ccc3c(c2)OCO3)cc1OC` (stereo unspecified), the T/C reads like this: under setting [4], 96 % of control; under setting [15], 98 % of control; under setting [16], 98 % of control.

Take `COc1cc(N)c2nccc(N(C)C)c2c1`: the T/C reads like this: under setting [11], 99 % of control; under setting [12], 97 % of control; (dose: 200.0 mg/kg/injection, schedule: Q01DX009 (ip), vehicle: saline) 107 % of control; under setting [13], 103 % of control; under setting [14], 101 % of control.

As to `O=CCc1ccc2c(c1)OCO2`, the T/C is 92 % of control under setting [5] and 108 % of control under setting [6].

Consider `O=C(Cl)COc1cc(Cl)c(Cl)cc1Cl`, for which the T/C is, setting by setting: (dose: 100.0 mg/kg/injection, schedule: Q04DX002 (ip), vehicle: gum acacia) 106 % of control; (dose: 200.0 mg/kg/injection, schedule: Q04DX002 (ip), vehicle: gum acacia) 110 % of control.

In the case of `CCOCC1COC(c2ccc3c(c2)OCO3)O1` (stereo unspecified), the T/C (dose: 222.0 mg/kg/injection, schedule: Q01DX Z (ip), vehicle: methylcellulose (MC)) was 102 % of control; the T/C (dose: 333.0 mg/kg/injection, schedule: Q01DX Z (ip), vehicle: methylcellulose (MC)) is 104 % of control; the T/C (dose: 500.0 mg/kg/injection, schedule: Q01DX Z (ip), vehicle: methylcellulose (MC)) was 102 % of control.

For `Cc1n[nH]c(=S)n1N`, the T/C reads like this: under setting [17], 115 % of control; under setting [18], 102 % of control; under setting [19], 96 % of control.

Turning to `COc1cc(C=O)ccc1OCCCOc1ccc(C=O)cc1OC`, the T/C under setting [3] is 104 % of control, the T/C under setting [4] is 93 % of control and the T/C under setting [15] is 101 % of control.

Consider `ClCCOCCOc1ccccc1`, for which the T/C by setting is: under setting [17], 96 % of control; under setting [18], 100 % of control; under setting [19], 101 % of control.
